Test results taken from article PMC3661904 (Neuropharmacology, 2012).

Columns and labels:
Test in all cases: aequorin intracellular calcium assay, inhibition of ACh response
Format in all cases: cell-based
[1] = target: human α3β4 nicotinic acetylcholine receptor (α3β4 nAChR) (Homo sapiens, UniProt P30926+P32297)
[2] = target: human α3β4α5D nAChR (D398 variant of α5; α3β4α5N carries N398) (Homo sapiens, UniProt P30532+P30926+P32297)
[3] = target: human α3β4α5D nAChR (D398 variant of α5; α3β4α5N carries N398) (Homo sapiens, UniProt P30532+P30926+P32297, P30532:D398N)
Chain of human α3β4α5D nAChR (D398 variant of α5; α3β4α5N carries N398) (Homo sapiens, UniProt P30532+P30926+P32297, P30532:D398N) (P32297 32-505): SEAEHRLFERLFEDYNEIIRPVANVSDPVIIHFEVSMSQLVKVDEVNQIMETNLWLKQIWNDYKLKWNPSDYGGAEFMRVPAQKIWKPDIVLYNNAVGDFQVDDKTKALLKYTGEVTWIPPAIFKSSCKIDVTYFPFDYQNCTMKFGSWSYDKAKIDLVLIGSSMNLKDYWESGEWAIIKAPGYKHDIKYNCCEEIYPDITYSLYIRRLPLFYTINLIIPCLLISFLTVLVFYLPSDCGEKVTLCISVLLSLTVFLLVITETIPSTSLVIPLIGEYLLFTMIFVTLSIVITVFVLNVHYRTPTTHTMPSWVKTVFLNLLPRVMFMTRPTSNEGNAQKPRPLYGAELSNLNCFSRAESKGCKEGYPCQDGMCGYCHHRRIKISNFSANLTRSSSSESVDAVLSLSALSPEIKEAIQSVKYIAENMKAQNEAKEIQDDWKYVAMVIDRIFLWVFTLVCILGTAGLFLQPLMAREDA
Chain of human α3β4α5D nAChR (D398 variant of α5; α3β4α5N carries N398) (Homo sapiens, UniProt P30532+P30926+P32297, P30532:D398N) (P30926 22-498): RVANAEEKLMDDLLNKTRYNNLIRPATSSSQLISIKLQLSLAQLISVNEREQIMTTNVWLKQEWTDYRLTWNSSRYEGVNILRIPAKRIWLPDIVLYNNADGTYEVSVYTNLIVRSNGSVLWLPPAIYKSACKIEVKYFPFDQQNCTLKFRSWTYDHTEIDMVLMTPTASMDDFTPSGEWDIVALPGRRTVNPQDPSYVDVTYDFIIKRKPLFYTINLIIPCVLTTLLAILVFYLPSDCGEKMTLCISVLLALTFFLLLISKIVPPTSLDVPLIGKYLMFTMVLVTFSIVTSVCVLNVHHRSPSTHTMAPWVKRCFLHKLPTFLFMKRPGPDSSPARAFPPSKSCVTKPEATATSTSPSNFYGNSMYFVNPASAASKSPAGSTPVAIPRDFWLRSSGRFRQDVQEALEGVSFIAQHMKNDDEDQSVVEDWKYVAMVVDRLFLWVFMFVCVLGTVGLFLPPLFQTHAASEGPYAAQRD
Chain of human α3β4α5D nAChR (D398 variant of α5; α3β4α5N carries N398) (Homo sapiens, UniProt P30532+P30926+P32297, P30532:D398N) (P30532 23-468 D398N): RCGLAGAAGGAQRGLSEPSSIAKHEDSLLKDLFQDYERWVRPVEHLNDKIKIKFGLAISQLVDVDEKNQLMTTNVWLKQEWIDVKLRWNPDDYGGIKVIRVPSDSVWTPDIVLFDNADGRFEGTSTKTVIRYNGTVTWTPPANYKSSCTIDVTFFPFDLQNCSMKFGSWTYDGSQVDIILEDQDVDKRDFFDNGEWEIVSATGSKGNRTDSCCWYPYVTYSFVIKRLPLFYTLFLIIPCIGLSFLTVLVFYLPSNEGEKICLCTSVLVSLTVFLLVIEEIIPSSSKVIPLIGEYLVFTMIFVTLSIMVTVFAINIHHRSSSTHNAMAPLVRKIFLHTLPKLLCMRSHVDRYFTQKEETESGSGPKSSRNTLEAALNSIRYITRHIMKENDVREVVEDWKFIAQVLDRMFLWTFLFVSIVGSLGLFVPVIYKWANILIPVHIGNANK

Chain of human α3β4 nicotinic acetylcholine receptor (α3β4 nAChR) (P32297 32-505): as the sequence (P32297 32-505) above
Chain of human α3β4 nicotinic acetylcholine receptor (α3β4 nAChR) (P30926 22-498): as the sequence (P30926 22-498) above

**Q.** What does the source list for `CCCCCCC(=O)OC1CC(C)(C)NC(C)(C)C1` [TMPH, 2,2,6,6-tetramethylpiperidin-4-yl heptanoate]?
**A.** IC50 [1]: 830 ± 100 nM; IC50 [2]: 360 ± 20 nM; IC50 [3]: 450 ± 40 nM

**Q.** What does the source list for `COc1cc2c3cc1Oc1cc(ccc1O)C[C@@H]1c4c(cc(OC)c(O)c4Oc4ccc(cc4)C[C@@H]3N(C)CC2)CC[N+]1(C)C` [D-Tubocurarine]?
**A.** IC50 [1]: 1010 ± 240 nM; IC50 [2]: 940 ± 210 nM; IC50 [3]: 640 ± 150 nM
